Laboratory results published in patent US8354402B2, “Polyarylcarboxamides useful as lipid lowering agents” (Janssen Pharmaceutica N.V., priority 2000, dated 2013).

Test system: ApoB secretion, HepG2 cells
Experiment: Quantification of the secretion of ApoB (HepG2 cells, immunoprecipitation, scintillation counting)
Assay type: cell-based
Conditions: Homo sapiens, HepG2, 24 h, 24 hours of incubation
Method: C.1. Quantification of the Secretion of ApoB
HepG2 cells were cultured in 24-well plates in Minimal Essential Medium Rega 3 containing 10% fetal calf serum. Rega 3 has the following composition: CaCl2 (264 μg/ml), KCl (400 μg/ml), MgSO4.7H2O (200 μg/ml), NaCl (6800 μg/ml), NaHCO3 (850 μg/ml), NaH2PO4.H2O (158 μg/ml), D-glucose (1000 μg/ml), phenol red (10 μg/ml), L-alanine (8.9 μg/ml), L-arginine HCl (12 μg/ml), L-asparagine.H2O (15 μg/ml), L-aspartic acid (13.3 μg/ml), L-cystine (24 μg/ml), L-glutamic acid (14.7 μg/ml), glycine (7.5 μg/ml), L-histidine.HCl .H2O (42 μg/ml), L-isoleucine (52 μg/ml), L-leucine (52 μg/ml), L-lysine.HCl (72.5 μg/ml), L-methionine (15 μg/ml), L-phenylalanine (32 μg/ml), L-proline (11.5 μg/ml), L-serine (10.5 μg/ml), L-threonine (48 μg/ml), L-tryptophan (10 μg/ml), L-tyrosine (36 μg/ml), L-valine (46 μg/ml), D-Ca pantothenate (1 μg/ml), choline chloride (1 μg/ml), folic acid (1 μg/ml), 1-enositol (2 μg/ml), nicotinamide (1 μg/ml), pyridoxal HCl (1 μg/ml), riboflavin (0.1 μg/ml) and thiamine HCl (1 μg/ml).
At 70% confluency, the medium was changed and the test compound or carrier (dimethylsulfoxide, 0.4% final concentration) was added. After 24 hours of incubation, the medium was transferred to Eppendorf tubes and cleared by centrifugation. A sheep antibody directed against either apo B was added to the supernatant and the mixture was kept at 8° C. for 24 hours. Then, rabbit anti-sheep antibody was added and the immune complex was allowed to precipitate for 24 hours at 8° C. The immunoprecipitate was pelleted by centrifugation for 25 minutes at 1320 g and washed twice with a buffer containing 40 mM 4-morpholinepropanesulfonic acid, 40 mM NaH2PO4, 100 mM NaF, 0.2 mM dithiothreitol, 5 mM ethylenediamine tetraacetic acid, 5 mM ethylenebis (oxyethylenenitrilo) tetraacetic acid, 1% Triton-X-100, 0.5% sodium deoxycholate, 0.1% sodium dodecylsulphate, 0.2 μM leupeptin and 0.2 μM phenylmethylsulphonylfluoride. Radioactivity in the pellet was quantified by liquid scintillation counting.
Resulting IC50 values are enumerated in Table C.1 for a number of compounds No. 1 to No. 123.

Row | IC50 [nM] | Compound
1 | < 30 | COC(=O)C(c1ccccc1)C1CCN(c2ccc(NC(=O)c3ccccc3-c3ccc(CC(C)C)cc3)cc2)CC1 (stereo not drawn) [Co. No. 233]
2 | 36 | O=C(Nc1ccc(C2=CCN(C(C(=O)NCc3ccccc3)c3ccccc3)CC2)cc1)c1ccccc1-c1ccccc1 (stereo not drawn) [Co. No. 166]
3 | 200 | COC(=O)C(c1ccccc1)N1CCN(c2ccc(NC(=O)c3cc(OC)ccc3-c3ccc(C(F)(F)F)cc3)cc2)CC1 (stereo not drawn) [Co. No. 186]
4 | ≥ 3000 | CCCNC(=O)C(c1ccccc1)C1CCN(c2ccc(NC(=O)c3cccc4c3Cc3ccccc3-4)cc2)CC1 (stereo not drawn) [Co. No. 14]
5 | 106 | COC(=O)C(c1ccccc1)N1CCN(c2ccc(NC(=O)c3ccccc3-c3ccc(Cl)cc3)cc2)CC1 (stereo not drawn) [Co. No. 159]
6 | 1710 | O=C(Nc1ccc(N2CCC(C(C(=O)Nc3ccccc3)c3ccccc3)CC2)cc1)c1ccccc1-c1ccccc1Cl (stereo not drawn) [Co. No. 115]
7 | 86.1 | CCNC(=O)C(c1ccccc1)N1CCN(c2ccc(NC(=O)c3ccccc3-c3ccccc3)cc2)CC1 (stereo not drawn) [Co. No. 139]
8 | 122 | COC(=O)C(c1ccccc1)N1CC=C(c2ccc(NC(=O)c3ccccc3-c3ccccc3)cc2)CC1 (stereo not drawn) [Co. No. 156]
9 | 247 | O=C(Nc1ccc(N2CCN(CC(C(=O)NCc3ccccc3)c3ccccc3)CC2)cc1)c1ccccc1-c1ccc(C(F)(F)F)cc1 (stereo not drawn) [Co. No. 67]
10 | 420 | COC(=O)C(c1ccc(Cl)cc1Cl)N1CCN(c2ccc(NC(=O)c3ccccc3-c3ccc(C(F)(F)F)cc3)cc2)CC1 (stereo not drawn) [Co. No. 259]
11 | 68.9 | O=C(Nc1ccc(C2CCN(C(C(=O)NCc3ccccc3)c3ccccc3)CC2)cc1)c1ccccc1-c1ccccc1 (stereo not drawn) [Co. No. 161]
12 | ≤ 30 | CCCNC(=O)C(c1ccccc1)C1CCN(c2ccc(NC(=O)c3ccccc3-c3ccccc3)cc2)CC1 (stereo not drawn) [Co. No. 13]
13 | 1770 | O=C(Nc1ccc(N2CCC(C(C(=O)Nc3ccccc3)c3ccccc3)CC2)cc1)c1ccccc1-c1cccc2ccccc12 (stereo not drawn) [Co. No. 137]
14 | 25.1 | O=C(Nc1ccc(N2CCN(C(C(=O)NCc3ccccc3)c3ccccc3)CC2)cc1)c1ccccc1-c1ccccc1 (stereo not drawn) [Co. No. 141]
15 | ≤ 30 | O=C(Nc1ccc(N2CCC(C(C(=O)Nc3ccccc3)c3ccccc3)CC2)cc1)c1ccccc1-c1ccc(C(F)(F)F)cc1 (stereo not drawn) [Co. No. 36]
16 | 122 | CCCNC(=O)C(CN1CCN(c2ccc(NC(=O)c3ccccc3-c3ccc(C(F)(F)F)cc3)cc2)CC1)c1ccccc1 (stereo not drawn) [Co. No. 63, N-[4-[4-[3-oxo-2-phenyl-3-(propylamino)propyl]-1-piperazinyl]phenyl]-4′-(trifluoromethyl)-[1,1′-biphenyl]-2-carboxamide]
17 | 72.3 | CCNC(=O)C(c1ccccc1)C1CCN(c2ccc(NC(=O)c3ccccc3-c3ccc(OC)cc3)cc2)CC1 (stereo not drawn) [Co. No. 93]
18 | 1470 | O=C(Nc1ccc(N2CCC(C(C(=O)Nc3ccccc3)c3ccccc3)CC2)cc1)c1ccccc1-c1ccccc1C(F)(F)F (stereo not drawn) [Co. No. 109]
19 | < 30 | CCNC(=O)C(c1ccccc1)N1CCN(c2ccc(NC(=O)c3ccc(Cl)cc3-c3ccc(C(F)(F)F)cc3)cc2)CC1 (stereo not drawn) [Co. No. 201]
20 | 19.9 | COC(=O)C(c1ccccc1)N1CCN(c2ccc(NC(=O)c3ccccc3-c3ccc(C(F)(F)F)cc3)cc2C)CC1 (stereo not drawn) [Co. No. 211]
21 | < 30 | COC(=O)C(c1cccc(Cl)c1)N1CCN(c2ccc(NC(=O)c3ccccc3-c3ccc(C(F)(F)F)cc3)cc2)CC1 (stereo not drawn) [Co. No. 260]
22 | 357 | CCOC(=O)C(c1ccccc1)N1CCCN(c2ccc(NC(=O)c3ccccc3-c3ccc(C(F)(F)F)cc3)cc2)CC1 (stereo not drawn) [Co. No. 120]
23 | ≥ 3000 | O=C(Nc1ccc(N2CCC(C(C(=O)Nc3ccccc3)c3ccccc3)CC2)cc1)c1ccccc1OCc1ccccc1 (stereo not drawn) [Co. No. 33]

Row | IC50 [nM] | Compound
24 | 2110 | CCCOC(=O)C(c1ccccc1)N1CCCN(c2ccc(NC(=O)c3ccccc3-c3ccc(C(F)(F)F)cc3)cc2)CC1 (stereo not drawn) [Co. No. 121]
25 | 7.62 | CCNC(=O)C(c1ccccc1)N1CCN(c2ccc(N(C)C(=O)c3ccccc3-c3ccc(C(F)(F)F)cc3)cc2)CC1 (stereo not drawn) [Co. No. 182]
26 | 139 | COC(=O)C(c1ccccc1Cl)N1CCN(c2ccc(NC(=O)c3ccccc3-c3ccc(C(F)(F)F)cc3)cc2)CC1 (stereo not drawn) [Co. No. 258]
27 | 240 | CCCCCNC(=O)C(CN1CCN(c2ccc(NC(=O)c3ccccc3-c3ccc(C(F)(F)F)cc3)cc2)CC1)c1ccccc1 (stereo not drawn) [Co. No. 65]
28 | 989 | CCCNC(=O)C(c1ccccc1)C1CCN(c2ccc(NC(=O)c3ccccc3Cc3ccccc3)cc2)CC1 (stereo not drawn) [Co. No. 20]
29 | ≤ 30 | O=C(Nc1ccc(C2CCN(C(C(=O)NC3CC3)c3ccccc3)CC2)cc1)c1ccccc1-c1ccc(C(F)(F)F)cc1 (stereo not drawn) [Co. No. 72]
30 | 107 | COC(=O)C(c1ccccc1)C1CCN(c2ccc(NC(=O)c3ccccc3-c3ccccc3)cc2)CC1 (stereo not drawn) [Co. No. 157]
31 | 14.1 | CCNC(=O)C(c1ccccc1)C1CCN(c2ccc(NC(=O)c3ccccc3-c3cccc(C)c3)cc2)CC1 (stereo not drawn) [Co. No. 90]
32 | < 30 | CCNC(=O)C(c1ccccc1)N1CCN(c2ccc(NC(=O)c3ccccc3-c3ccc(C(F)(F)F)cc3)c(Cl)c2)CC1 (stereo not drawn) [Co. No. 214]
33 | 121 | Cc1ccc(-c2ccccc2C(=O)Nc2ccc(N3CCC(C(C(=O)Nc4ccccc4)c4ccccc4)CC3)cc2)cc1 (stereo not drawn) [Co. No. 117]
34 | 158 | O=C(Nc1ccc(N2CCC(C(C(=O)NCc3ccccc3)c3ccccc3)CC2)cc1)c1ccccc1C(=O)c1ccccc1 (stereo not drawn) [Co. No. 5]
35 | 173 | O=C(Nc1ccc(N2CCC(C(C(=O)OCCCc3ccccc3)c3ccccc3)CC2)cc1)c1ccccc1-c1ccc(C(F)(F)F)cc1 (stereo not drawn) [Co. No. 246]
36 | < 30 | CCc1ccc(-c2ccccc2C(=O)Nc2ccc(N3CCC(C(C(=O)OC)c4ccccc4)CC3)cc2)cc1 (stereo not drawn) [Co. No. 231]
37 | 79.4 | CCCNC(=O)C(c1ccccc1)C1CCN(c2ccc(NC(=O)c3ccccc3-c3ccc(F)cc3F)cc2)CC1 (stereo not drawn) [Co. No. 84, 2′,4′-difluoro-N-[4-[4-[2-oxo-1-phenyl-2-(propylamino)ethyl]-1-piperidinyl]phenyl]-[1,1′-biphenyl]-2-carboxamide]
38 | 403 | C=CCOC(=O)C(c1ccccc1)C1CCN(c2ccc(NC(=O)c3ccccc3-c3ccccc3)cc2)CC1 (stereo not drawn) [Co. No. 179]
39 | 11.6 | O=C(Nc1ccc(N2CCC(C(C(=O)NCc3ccccc3)c3ccccc3)CC2)cc1)c1ccccc1-c1ccc(Cl)cc1 (stereo not drawn) [Co. No. 100]
40 | 68.7 | Cc1ccccc1-c1ccccc1C(=O)Nc1ccc(N2CCC(C(C(=O)NCc3ccccc3)c3ccccc3)CC2)cc1 (stereo not drawn) [Co. No. 51]
41 | 234 | CCCNC(=O)C(c1ccccc1)C1CCN(c2ccc(NC(=O)c3ccccc3-c3cc(Cl)cc(Cl)c3)cc2)CC1 (stereo not drawn) [Co. No. 97, 3′,5′-dichloro-N-[4-[4-[2-oxo-1-phenyl-2-(propylamino)ethyl]-1-piperidinyl]phenyl]-[1,1′-biphenyl]-2-carboxamide]
42 | 634 | CCCNC(=O)C(c1ccccc1)C1CCN(c2ccc(NC(=O)c3ccccc3-c3cccc(C(F)(F)F)c3)cc2)CC1 (stereo not drawn) [Co. No. 48]
43 | 202 | C=CCOC(=O)C(c1ccccc1)N1CCN(c2ccc(NC(=O)c3ccccc3-c3ccc(C(F)(F)F)cc3)cc2)CC1 (stereo not drawn) [Co. No. 144]
44 | > 3000 | CCCNC(=O)C(c1ccccc1)C1CCN(c2ccc(NC(=O)c3ccccc3-c3cccc(N)c3)cc2)CC1 (stereo not drawn) [Co. No. 133]
45 | 836 | O=C(Nc1ccc(N2CCC(C(C(=O)Nc3ccccc3)c3ccccc3)CC2)cc1)c1ccccc1-c1ccc(F)cc1 (stereo not drawn) [Co. No. 114]
